In PubChem BioAssay AID1645863 (Buhrlage Lab, Dana-Farber Cancer Institute and Novartis …, 2021):
Active and inactive are the calls of the source. How the calls were made is not given here.

biological target: Ubiquitin carboxyl-terminal hydrolase 10 (Homo sapiens) (UniProt Q14694); assay: primary hit verification, biochemical, ubiquitin-specific protease 10 deubiquitylase inhibitors, concentration-effect titration (AID 1645863); conditions: USP10 deubiquitinase enzymatic assay;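 further: potency values describe inhibition of USP10 cleavage of a fluorogenic ubiquitin substrate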
Sequence (Q14694 whole entry, looked up): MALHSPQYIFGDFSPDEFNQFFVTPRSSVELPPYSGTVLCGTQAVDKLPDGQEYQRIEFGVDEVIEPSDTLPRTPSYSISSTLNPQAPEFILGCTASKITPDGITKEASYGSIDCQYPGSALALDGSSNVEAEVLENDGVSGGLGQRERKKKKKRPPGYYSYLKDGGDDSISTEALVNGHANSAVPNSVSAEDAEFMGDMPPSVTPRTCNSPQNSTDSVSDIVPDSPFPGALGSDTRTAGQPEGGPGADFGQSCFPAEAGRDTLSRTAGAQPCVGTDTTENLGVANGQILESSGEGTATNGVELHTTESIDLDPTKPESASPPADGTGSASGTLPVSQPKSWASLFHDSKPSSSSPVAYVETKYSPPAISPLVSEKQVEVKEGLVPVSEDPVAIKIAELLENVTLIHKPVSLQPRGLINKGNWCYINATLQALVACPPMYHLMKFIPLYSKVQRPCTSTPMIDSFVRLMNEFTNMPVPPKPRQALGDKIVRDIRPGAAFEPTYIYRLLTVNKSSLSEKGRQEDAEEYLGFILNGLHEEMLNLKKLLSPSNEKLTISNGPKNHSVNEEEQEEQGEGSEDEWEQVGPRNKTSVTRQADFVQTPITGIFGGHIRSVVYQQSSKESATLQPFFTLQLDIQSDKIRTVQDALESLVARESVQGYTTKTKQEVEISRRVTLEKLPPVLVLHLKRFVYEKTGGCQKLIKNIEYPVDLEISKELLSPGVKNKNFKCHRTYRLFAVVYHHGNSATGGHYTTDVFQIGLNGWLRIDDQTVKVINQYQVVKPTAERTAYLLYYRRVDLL

Q: With `O=C(Cn1c(=O)n(CCC(=O)N2CCc3ccccc3C2)c(=O)c2ccccc21)NCc1ccccc1Cl` as the compound, how does the IC50 read?
A: The IC50 was > 40 µM (inactive).

Q: For `COc1ccc(CNc2ccc(C(=O)OCc3ccccc3F)cc2S(=O)(=O)Nc2cccc(OC)c2)cc1`, which IC50 is on record?
A: The IC50 was > 40 µM (inactive).

Q: How did the IC50 turn out when `COc1cccc(NC(=O)Cn2cc(C(=O)c3ccc(C)cc3)c(=O)c3cc(Cl)ccc32)c1` was run?
A: The IC50 was 11.2 µM.

Q: With `O=C(CCCn1c(=O)c2cc(Cl)ccc2n(CC(=O)Nc2cccc(F)c2)c1=O)NCc1ccco1` as the compound, how does the IC50 read?
A: Its IC50 is > 40 µM (inactive).

Q: `CCn1c(SCC(=O)Nc2ccc(C)c(Cl)c2)nnc1-c1ccc2c(c1)OCCO2` was tested. Which IC50 did it give?
A: Its IC50 is > 40 µM (inactive).

Q: Which IC50 does the source give for `COc1ccc(NC(=O)Cn2c(=O)n(CCCC(=O)NC3CCCC3)c(=O)c3cc(Cl)ccc32)c(OC)c1` here?
A: The IC50 was 27.8 µM.

Q: How did the IC50 turn out when `CCn1cc2c(n1)c(=O)n(Cc1ccccc1)c(=O)n2CC(=O)Nc1ccc(C(C)C)cc1` was run?
A: The IC50 was 15 µM.

Q: Which IC50 does the source give for `O=C(CCCc1nnc2c(=O)n(-c3cccc(F)c3)ccn12)NCc1ccc(F)cc1` here?
A: The IC50 was 35.3 µM.

Q: `COc1ccccc1-c1noc(CCCC(=O)Nc2ccccc2)n1` was tested. Which IC50 did it give?
A: The IC50 was > 40 µM (inactive).

Q: `COc1cccc(NC(=O)Cn2c3ccccc3n3c(=O)cc(-c4ccccc4)nc23)c1` was tested. Which IC50 did it give?
A: The IC50 was 14.6 µM.

Q: `Cc1cccc2nc(CSc3nc4ccc([N+](=O)[O-])cc4[nH]3)cn12` was tested. Which IC50 did it give?
A: Its IC50 is 19.8 µM.

Q: How did the IC50 turn out when `COc1ccc(S(=O)(=O)N2CCc3ccccc32)cc1C(=O)Nc1ccc2c(c1)NC(=O)C(C)O2` (centres undefined) was run?
A: Its IC50 is > 40 µM (inactive).

Q: Which IC50 does the source give for `Cn1cc2cccc(NC(=O)c3ccc(F)cc3)c2n1` here?
A: The IC50 was > 40 µM (inactive).

Q: `O=c1[nH]c2ccc(S(=O)(=O)Nc3ccc(O)c4ccccc34)cc2[nH]1` was tested. Which IC50 did it give?
A: Its IC50 is 39 µM.

Q: With `O=C(c1cnc2ccccc2n1)N1CCC(S(=O)(=O)c2ccc(-c3ccco3)cc2)CC1` as the compound, how does the IC50 read?
A: Its IC50 is > 40 µM (inactive).

Q: How did the IC50 turn out when `O=c1c2ccccc2nc(/C=C/c2ccco2)n1Cc1ccccc1` was run?
A: Its IC50 is > 40 µM (inactive).

Q: `CCOc1ccc2c(c1)c(=O)c(C(=O)c1ccccc1)cn2CC(=O)Nc1ccc(OC)cc1` was tested. Which IC50 did it give?
A: Its IC50 is > 40 µM (inactive).

Q: `COCCn1c(=O)[nH]c2cc(C(=O)NCCNc3ccc([N+](=O)[O-])cc3C#N)ccc2c1=O` was tested. Which IC50 did it give?
A: Its IC50 is 15.5 µM.

Q: `O=C1CC(c2ccccc2)n2ncnc2N1` (centres undefined) was tested. Which IC50 did it give?
A: The IC50 was > 40 µM (inactive).

Q: With `Cc1occ2c1C(=O)c1c(O)ccc(O)c1C2` as the compound, how does the IC50 read?
A: The IC50 was 4.8 µM.

Q: Which IC50 does the source give for `CCCCCCCCCc1cc(OC(=O)c2c(CCCCCCCCC)cc(O)cc2O[C@@H]2O[C@H](CO)[C@@H](O)[C@H](O)[C@H]2O)cc(O)c1C(=O)O` here?
A: Its IC50 is 3.43 µM.

Q: For `COc1ccc(NC(=O)Cn2cc(C(=O)c3ccc(Cl)cc3)c(=O)c3cc(F)ccc32)cc1`, which IC50 is on record?
A: The IC50 was 13.2 µM.

Q: `COC(=O)c1ccc2c(=O)n(CCCCCC(=O)NCCc3ccccc3Cl)c(=O)[nH]c2c1` was tested. Which IC50 did it give?
A: Its IC50 is > 40 µM (inactive).

Q: How did the IC50 turn out when `CSc1ccc(CNC(=O)Cn2nc(C)c3c(C)n(-c4ccccc4)nc3c2=O)cc1` was run?
A: The IC50 was 10.3 µM.

Q: For `Cc1cc(NC(=O)CSc2ncc(-c3cccc([N+](=O)[O-])c3)n2-c2cccc(Cl)c2)no1`, which IC50 is on record?
A: The IC50 was > 40 µM (inactive).

Q: With `Cc1cccc(OCC2=NN3C(=N)/C(=C\c4cc(C)n(-c5cccc(F)c5)c4C)C(=O)N=C3S2)c1` as the compound, how does the IC50 read?
A: Its IC50 is > 40 µM (inactive).

Q: For `Cc1ccc(C2c3[nH]c4ccccc4c3C[C@H]3C(=O)N(c4ccc(C(=O)NCCc5ccccc5)cc4)C(=O)N23)cc1` (some centres undefined), which IC50 is on record?
A: The IC50 was > 40 µM (inactive).

Q: `COc1ccc(C2(c3nnc(C(C)Oc4ccc(F)cc4)o3)CCOCC2)cc1` (centres undefined) was tested. Which IC50 did it give?
A: Its IC50 is > 40 µM (inactive).

Q: How did the IC50 turn out when `COc1ccccc1Nc1ncc(C(=O)NCc2ccc(F)cc2)c2ccccc12` was run?
A: Its IC50 is > 40 µM (inactive).

Q: `Cc1cc(=O)[nH]c(SCC(=O)c2cc(C)n(CCC3=CCCCC3)c2C)c1C#N` was tested. Which IC50 did it give?
A: The IC50 was > 40 µM (inactive).

Q: With `COc1ccc(/C=C/C(=O)Nc2cccc(S(=O)(=O)Nc3ccccc3Cl)c2)c(OC)c1` as the compound, how does the IC50 read?
A: Its IC50 is 15 µM.

Q: `COC(=O)c1ccc2c(=O)n(CCCCCC(=O)NCc3cccc(Cl)c3)c(=O)[nH]c2c1` was tested. Which IC50 did it give?
A: Its IC50 is 16 µM.

Q: `O=C(CCCCn1c(=O)c2ccccc2n(CC(=O)Nc2ccc3c(c2)OCCO3)c1=O)NCc1ccco1` was tested. Which IC50 did it give?
A: The IC50 was 25.2 µM.

Q: `CC[C@@H](C(=O)[C@@H](C)[C@@H](O)[C@H](C)CCc1ccc(C)c(O)c1C(=O)O)[C@@H]1O[C@](CC)([C@H]2CC[C@](O)(CC)[C@H](C)O2)C[C@@H]1C` was tested. Which IC50 did it give?
A: Its IC50 is 12.4 µM.
